Results reported in ChEMBL document CHEMBL4024722, “Discovery of acylguanidine oseltamivir carboxylate derivatives as potent neuraminidase inhibitors” (Bioorg Med Chem, 2017).

Legend:
[1] = Inhibition of Influenza A virus (A/Puerto Rico/8/1934(H1N1)) neuraminidase H259Y mutant using 4-MU-NANA as substrate preincubated for 10 mins followed by substrate addition measured after 1 hr by fluorescence assay
[2] = tested on: Influenza A virus; experiment: Antiviral activity against Influenza A virus (A/Puerto Rico/8/1934(H1N1)) harboring wild type neuraminidase assessed as inhibition of viral replication preincubated for 36 hrs followed by reinfection in new monolayer of MDCK cells every 1 hr for 12 hrs; assay type: functional
[3] = Antiviral activity against Influenza A virus (A/Hong Kong/498/97(H3N2)) harboring wild type neuraminidase infected in MDCK cells assessed as inhibition of viral replication preincubated for 36 hrs followed by reinfection in new monolayer of MDCK cells every 1 hr for 24 hrs; assay type: functional, cell-based
[4] = tested on: Influenza A virus; assay type: functional, cell-based, A/Puerto Rico/8/1934(H1N1)
[5] = in vitro; settings: dog, MDCK cells

| SMILES | IC50 [1] [µM] | EC50 [2] [µM] | EC50 [3] [µM] | EC50 [4] [µM] | selectivity ratio [5] |
| --- | --- | --- | --- | --- | --- |
| CCC(CC)O[C@@H]1C=C(C(=O)O)C[C@H](NC(=N)NC(=O)Cc2ccc(C)cc2)[C@H]1NC(C)=O | 0.132 | – | – | – | – |
| CCC(CC)O[C@@H]1C=C(C(=O)O)C[C@H](NC(=N)NC(=O)c2cccc(C)c2)[C@H]1NC(C)=O | > 1 | – | – | – | – |
| CCC(CC)O[C@@H]1C=C(C(=O)O)C[C@H](NC(=N)NC(=O)Cc2ccc(Br)cc2)[C@H]1NC(C)=O | 0.0406 | 0.0129 | 0.00258 | 0.0691 | > 14.5 |
| CCCCC(=O)NC(=N)N[C@H]1CC(C(=O)O)=C[C@@H](OC(CC)CC)[C@@H]1NC(C)=O | 0.163 | – | – | – | – |
| CCC(CC)O[C@@H]1C=C(C(=O)O)C[C@H](NC(=N)NC(=O)c2ccncc2)[C@H]1NC(C)=O | 0.0368 | – | – | – | – |
| CCC(CC)O[C@@H]1C=C(C(=O)O)C[C@H](NC(=N)NC(=O)c2ccc([N+](=O)[O-])cc2)[C@H]1NC(C)=O | 0.0578 | 0.16 | 0.0392 | 0.136 | > 7.4 |
| CCC(CC)O[C@@H]1C=C(C(=O)O)C[C@H](NC(=N)NC(=O)Cc2ccc3ccccc3c2)[C@H]1NC(C)=O | 0.0667 | 0.00845 | 0.00395 | 0.0113 | > 88.6 |
| CCC(CC)O[C@@H]1C=C(C(=O)O)C[C@H](NC(=N)NC(=O)CCc2ccccc2)[C@H]1NC(C)=O | 0.114 | – | – | – | – |
| CCC(CC)O[C@@H]1C=C(C(=O)O)C[C@H](NC(=N)NC(=O)C(C)C)[C@H]1NC(C)=O | 0.132 | – | – | – | – |
| CCC(CC)O[C@@H]1C=C(C(=O)O)C[C@H](NC(=N)NC(=O)CCc2cccnc2)[C@H]1NC(C)=O | 0.0211 | – | – | – | – |
| CCC(=O)NC(=N)N[C@H]1CC(C(=O)O)=C[C@@H](OC(CC)CC)[C@@H]1NC(C)=O | 0.0742 | 0.0239 | 0.0053 | 0.0373 | > 26.8 |
| CCC(CC)O[C@@H]1C=C(C(=O)O)C[C@H](NC(=N)NC(=O)Cc2ccccc2C)[C@H]1NC(C)=O | 0.225 | – | – | – | – |
| CCC(CC)O[C@@H]1C=C(C(=O)O)C[C@H](NC(=N)NC(=O)CCc2ccc(OC)c(OC)c2)[C@H]1NC(C)=O | 0.0145 | 0.0201 | 0.00562 | 0.023 | > 43.4 |
| C=CCCC(=O)NC(=N)N[C@H]1CC(C(=O)O)=C[C@@H](OC(CC)CC)[C@@H]1NC(C)=O | 0.0305 | 0.0245 | 0.00945 | 0.00718 | > 139 |
| CCC(CC)O[C@@H]1C=C(C(=O)O)C[C@H](NC(=N)NC(=O)CC(C)C)[C@H]1NC(C)=O | 0.445 | – | – | – | – |
| CCCC(=O)NC(=N)N[C@H]1CC(C(=O)O)=C[C@@H](OC(CC)CC)[C@@H]1NC(C)=O | 0.133 | – | – | – | – |
| CCC(CC)O[C@@H]1C=C(C(=O)O)C[C@H](NC(=N)NC(=O)CCCc2ccccc2)[C@H]1NC(C)=O | 0.221 | – | – | – | – |
